# Assay results from article PMC8881069, “Thio- and selenosemicarbazones as antiprotozoal agents against Trypanosoma cruzi and Trichomonas vaginalis” (Journal of Enzyme Inhibition and Medicinal Chemistry, 2022).
# Legend:
# [1] = tested on: Trichomonas vaginalis; assay: Trichomonacidal in vitro assay (resazurin); format: cell-based; conditions: isolate JH31A#4, 24 h, brackets: 95% confidence interval
# [2] = tested on: J774 cells; assay: Unspecific cytotoxicity assay on J774 macrophages (resazurin); format: cell-based, mouse; conditions: mouse, mean ± SD, n = 3
# [3] = tested on: Trypanosoma cruzi Y (DTU TcII) epimastigotes; assay: Y strain epimastigote susceptibility assay (resazurin); format: cell-based; conditions: Trypanosoma cruzi; T. cruzi Y strain epimastigotes, 48 h, mean ± SD, n = 3
# [4] = tested on: L929 cells; assay: Unspecific cytotoxicity assay on L929 fibroblasts (resazurin); format: cell-based; conditions: mean ± SD, n = 3; for CC50 at 72 h: mouse; for CC50: 72 h
# [5] = tested on: Trypanosoma cruzi CL-B5 (DTU TcVI) epimastigotes; assay: CL-B5 lacZ epimastigote susceptibility assay (CPRG); format: cell-based; conditions: T. cruzi CL-B5 lacZ epimastigotes, 72 h, mean ± SD, n = 3
# [6] = tested on: Vero cells; assay: Unspecific cytotoxicity assay in Vero cells (resazurin); format: cell-based, African green monkey; conditions: for CC50 at 24 h: African green monkey; for CC50 at 24 h / CC50: Vero cells, brackets: 95% confidence interval, 24 h; for unspecific cytotoxicity towards Vero cells (in words): highest concentration evaluated (300 µM)
# [7] = tested on: hydrogenosome membrane potential of T. vaginalis; assay: Hydrogenosomal membrane potential assay (JC-1); conditions: Figure 3; 4 h; 51 and 63 at 100 µM, MTZ 24 µM, CCCP 50 µM
# [8] = Vero CCL-81 cells (kidney epithelial cells)
SMILES,"IC50 ([1]; Trichomonas vaginalis, 24 h)",CC50 at 72 h [4],IC50 ([5]; Trypanosoma cruzi),also measured
COc1ccc(/C=N/NC(=S)Nc2ccccc2)cc1 [Compound 37],167 µM,> 256 µM,,CC50 at 48 h [2]: > 256 µM; IC50 [3]: 85.1 ± 17.2 µM
NNC(=S)Nc1ccccc1[N+](=O)[O-] [Compound 28],> 300 µM,210 ± 15.3 µM,44.1 ± 5.38 µM,
NNC(=S)Nc1ccc([N+](=O)[O-])cc1 [Compound 30],106 µM,23.6 ± 2.84 µM,72.5 ± 1.23 µM,
Oc1ccc(/C=N/NC(=S)Nc2ccc(Br)cc2)cc1 [Compound 47],52.4 µM,67 ± 5.43 µM,42.8 ± 12 µM,
COc1ccc(/C=N/NC(=S)Nc2ccc(Cl)cc2)cc1 [Compound 46],32.3 µM,49.7 ± 3.76 µM,30.5 ± 4.1 µM,"CC50 at 24 h [6, 8]: > 300 µM"
O=[N+]([O-])c1cccc(NC(=S)N/N=C/c2ccc(O)c(O)c2)c1 [Compound 58],73.4 µM,12 ± 1.42 µM,33.8 ± 7.59 µM,
O=[N+]([O-])c1cccc(NC(=S)N/N=C/c2ccc(O)cc2)c1 [Compound 56],24.3 µM,28.8 ± 3.25 µM,36.9 ± 3.84 µM,"CC50 at 24 h [6, 8]: 169 µM"
COc1ccc(/C=N/NC(=S)Nc2cccc3ccccc23)cc1 [Compound 64],,,,CC50 [6]: > 300 µM; IC50 [1]: 30.5 µM; IC50 [5]: > 256 µM; CC50 [4]: > 256 µM
COc1ccc(/C=N/NC(=S)Nc2ccc(I)cc2)cc1 [Compound 51],14.8 µM,> 256 µM,> 256 µM,"CC50 at 24 h [6, 8]: ≥ 275 µM; CC50 [6]: > 300 µM; unspecific cytotoxicity towards Vero cells (in words) [6]: did not exhibit unspecific cytotoxicity; JC-1 fluorescence distribution in trophozoites (fluorescence microscopy) [7]: fluorescence restricted to certain regions of the parasite; IC50 [1]: 14.8 µM"
O=[N+]([O-])c1ccc(/C=N/NC(=S)Nc2ccc([N+](=O)[O-])cc2)cc1 [Compound 62],152 µM,53.5 ± 4.82 µM,> 256 µM,
"Cc1ncc([N+](=O)[O-])n1CCO [Metronidazole, metronidazole, reference compound]",2.68 µM,,,"CC50 at 24 h [6, 8]: > 300 µM; JC-1 fluorescence distribution in trophozoites (fluorescence microscopy) [7]: fluorescence restricted to certain regions of the parasite"
COc1ccc(/C=N/NC(=S)Nc2ccc(F)cc2)cc1 [Compound 44],> 300 µM,> 256 µM,> 256 µM,
O=[N+]([O-])c1ccccc1NC(=S)N/N=C/c1ccc(O)c(O)c1 [Compound 55],133 µM,21.4 ± 4.12 µM,42 ± 9.06 µM,
COc1ccc(NC(=S)NN)cc1 [Compound 23],256 µM,> 256 µM,53.5 ± 13 µM,CC50 at 48 h [2]: > 256 µM; IC50 [3]: 59.9 ± 10.4 µM
O=[N+]([O-])c1ccccc1NC(=S)N/N=C/c1ccc(O)cc1 [Compound 53],92.8 µM,34.9 ± 8.65 µM,21.8 ± 2.98 µM,
COc1ccc(/C=N/NC(=S)Nc2ccccc2[N+](=O)[O-])cc1 [Compound 54],34.2 µM,> 256 µM,210 ± 14.5 µM,"CC50 at 24 h [6, 8]: > 300 µM"
COc1ccc(/C=N/NC(=S)Nc2ccc(C)cc2)cc1 [Compound 40],226 µM,> 256 µM,> 256 µM,
Oc1ccc(/C=N/NC(=S)Nc2ccc(Br)cc2)cc1O [Compound 49],11.1 µM,16.7 ± 0.7 µM,104 ± 15.7 µM,"CC50 at 24 h [6, 8]: ≥ 275 µM; CC50 [6]: > 300 µM; unspecific cytotoxicity towards Vero cells (in words) [6]: did not exhibit unspecific cytotoxicity; IC50 [1]: 16.4 µM"
Cc1ccc(NC(=S)N/N=C/c2ccc(O)cc2)cc1 [Compound 39],66.1 µM,61 ± 3.72 µM,39.6 ± 7.08 µM,
Oc1ccc(/C=N/NC(=S)Nc2ccccc2)cc1 [Compound 36],74 µM,46.29 ± 0.15 µM,70.9 ± 11 µM,

SMILES,"IC50 ([1]; Trichomonas vaginalis, 24 h)",CC50 at 72 h [4],IC50 ([5]; Trypanosoma cruzi),also measured
"N#CC(C#N)=NNc1cccc(Cl)c1 [CCCP, m-chlorocarbonylcyanide phenylhydrazone, reference compound]",,,,JC-1 fluorescence distribution in trophozoites (fluorescence microscopy) [7]: provokes a disturbance in the hydrogenosome membrane potential
Oc1ccc(/C=N/NC(=[Se])Nc2ccc(Br)cc2)cc1O [Compound 74],11.1 µM,,,CC50 at 24 h [6]: 114 µM
COc1ccc(/C=N/NC(=S)Nc2ccc(Br)cc2)cc1 [Compound 48],55.1 µM,> 256 µM,> 256 µM,
Oc1ccc(/C=N/NC(=S)Nc2ccc(F)cc2)cc1O [Compound 45],226 µM,30.5 ± 3.93 µM,97.4 ± 5.33 µM,
COc1ccc(/C=N/NC(=[Se])Nc2ccc(I)cc2)cc1 [Compound 75],11 µM,,,unspecific cytotoxicity towards Vero cells (in words) [6]: did not present toxic effects at the maximum concentration tested
Oc1ccc(/C=N/NC(=S)Nc2ccccc2)cc1O [Compound 38],88.6 µM,45.2 ± 0.58 µM,15.3 ± 2.22 µM,
COc1ccc(NC(=S)N/N=C/c2ccc(O)cc2)cc1 [Compound 42],64.8 µM,43.3 ± 16.6 µM,49.2 ± 9.97 µM,
O=[N+]([O-])c1ccc(NC(=S)N/N=C/c2ccc(O)cc2)cc1 [Compound 59],36 µM,29.4 ± 2.52 µM,76.4 ± 9.91 µM,"CC50 at 24 h [6, 8]: 254 µM"
Cc1ccc(NC(=S)N/N=C/c2ccc(O)c(O)c2)cc1 [Compound 41],80.6 µM,20 ± 1.87 µM,119 ± 7.68 µM,
Oc1ccc(/C=N/NC(=S)Nc2ccc(I)cc2)cc1 [Compound 50],42.2 µM,41.4 ± 8.36 µM,22.8 ± 1.61 µM,"CC50 at 24 h [6, 8]: > 300 µM"
NNC(=S)Nc1ccc(Cl)cc1 [Compound 25],49.2 µM,67.7 ± 3.16 µM,44.2 ± 13.6 µM,"CC50 at 24 h [6, 8]: > 300 µM"
Oc1ccc(/C=N/NC(=S)Nc2cccc3ccccc23)cc1O [Compound 65],,,,CC50 [6]: 175 µM; IC50 [1]: 20.1 µM; IC50 [5]: 70.2 ± 6.99 µM; CC50 [4]: 28.8 ± 7.77 µM
Oc1ccc(/C=N/NC(=S)Nc2ccc(I)cc2)cc1O [Compound 52],24.9 µM,20.8 ± 7.92 µM,69.4 ± 4.73 µM,"CC50 at 24 h [6, 8]: > 300 µM"
COc1ccc(/C=N/NC(=S)Nc2ccc([N+](=O)[O-])cc2)cc1 [Compound 60],155 µM,> 256 µM,> 256 µM,
O=[N+]([O-])c1ccc(NC(=S)N/N=C/c2ccc(O)c(O)c2)cc1 [Compound 61],128 µM,5.37 ± 0.3 µM,111 ± 14.8 µM,
Oc1ccc(/C=N/NC(=S)Nc2cccc3ccccc23)cc1 [Compound 63],,,,CC50 [6]: 275 µM; JC-1 fluorescence distribution in trophozoites (fluorescence microscopy) [7]: fluorescence restricted to certain regions of the parasite; IC50 [1]: 14.9 µM; IC50 [5]: 53.6 ± 11.3 µM; CC50 [4]: 31.1 ± 9.21 µM
NNC(=S)Nc1cccc([N+](=O)[O-])c1 [Compound 29],19.1 µM,206 ± 7.25 µM,79.9 ± 15.4 µM,"CC50 at 24 h [6, 8]: > 300 µM"
NNC(=S)Nc1ccc(F)cc1 [Compound 24],200 µM,> 256 µM,58.8 ± 8.77 µM,CC50 at 48 h [2]: > 256 µM; IC50 [3]: 97.3 ± 3.45 µM
NNC(=S)Nc1ccc(I)cc1 [Compound 27],75.7 µM,51 ± 8.88 µM,49.8 ± 14.2 µM,
